According to ChEMBL document CHEMBL1129722, “Synthesis and biological activity of conformationally constrained sialyl Lewis X analogues with reduced carbohydrate character” (Bioorg Med Chem Lett, 1996):

Target: T1, E-selectin (Homo sapiens, UniProt P16581)
T1 sequence (P16581 whole entry): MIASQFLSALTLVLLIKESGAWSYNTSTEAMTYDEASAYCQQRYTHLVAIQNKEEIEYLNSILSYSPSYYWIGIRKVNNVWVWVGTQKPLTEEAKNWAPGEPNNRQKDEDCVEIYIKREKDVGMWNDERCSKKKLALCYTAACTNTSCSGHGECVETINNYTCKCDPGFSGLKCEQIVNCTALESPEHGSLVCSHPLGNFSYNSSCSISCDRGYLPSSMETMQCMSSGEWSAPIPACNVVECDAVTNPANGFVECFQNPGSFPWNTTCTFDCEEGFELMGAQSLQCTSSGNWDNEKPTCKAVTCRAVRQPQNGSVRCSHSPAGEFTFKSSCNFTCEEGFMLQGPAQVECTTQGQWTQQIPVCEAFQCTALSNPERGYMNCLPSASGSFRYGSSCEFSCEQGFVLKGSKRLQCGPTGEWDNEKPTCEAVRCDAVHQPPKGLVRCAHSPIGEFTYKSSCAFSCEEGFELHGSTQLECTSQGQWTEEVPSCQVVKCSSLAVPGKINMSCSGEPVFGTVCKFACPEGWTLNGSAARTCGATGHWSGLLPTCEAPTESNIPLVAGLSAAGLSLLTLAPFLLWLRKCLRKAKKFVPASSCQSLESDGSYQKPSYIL
Assay: Compound was tested for its ability to inhibit the binding to recombinant human Selectin E immobilized on SPA beads of radiolabeled HL60 cell membrane containing sLex.
Type: cell membranes, HL-60

| Compound | IC50 |
| --- | --- |
| C[C@@H]1O[C@@H](OC2CCCCC2O[C@@H]2O[C@@H](CO)[C@H](O)[C@H](OCC(=O)O)[C@@H]2O)[C@@H](O)[C@@H](O)[C@@H]1O (stereo partly drawn) | 500 µM |
| CC(O[C@@H]1O[C@@H](C)[C@@H](O)[C@H](O)[C@@H]1O)C(C)O[C@@H]1O[C@@H](CO)[C@H](O)[C@H](OCC(=O)O)[C@@H]1O (stereo partly drawn) | 2100 µM |
| C[C@@H]1O[C@@H](O[C@@H]2CCCC[C@H]2O[C@@H]2O[C@@H](CO)[C@H](O)[C@H](OCC(=O)O)[C@@H]2O)[C@@H](O)[C@@H](O)[C@@H]1O | > 10000 µM |
